Test results reported in patent publication US20110105509A1 (Wyeth, LLC, priority 2009, published 2011).

What follows are compounds tested against T1, CRTH2 (Homo sapiens, UniProt Q9Y5Y4) (assay: FRET based competitive immunoassay (cAMP) in CRTH2 expressing CHO cells). Details: CRTH2 expressing CHO cells incubated with forskolin and PGD2; Eu3+ cryptate-labeled anti-cAMP and d2-labeled cAMP.
T1 construct: expressed in transfected cells; host or cells: CHO cells
T1 sequence (Q9Y5Y4 1-395): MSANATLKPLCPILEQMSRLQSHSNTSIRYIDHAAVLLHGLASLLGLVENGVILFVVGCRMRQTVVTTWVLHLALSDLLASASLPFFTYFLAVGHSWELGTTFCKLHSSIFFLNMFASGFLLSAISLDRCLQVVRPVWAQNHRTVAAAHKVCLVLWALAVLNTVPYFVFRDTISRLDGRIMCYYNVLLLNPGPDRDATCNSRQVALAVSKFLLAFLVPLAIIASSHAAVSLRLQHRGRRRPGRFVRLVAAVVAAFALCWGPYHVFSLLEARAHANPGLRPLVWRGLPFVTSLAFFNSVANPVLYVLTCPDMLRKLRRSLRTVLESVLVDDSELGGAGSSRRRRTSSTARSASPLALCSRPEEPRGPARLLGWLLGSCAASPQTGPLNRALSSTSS
Assay type: cell-based
Procedure: FRET Assay: To evaluate potency compounds were tested in a FRET based competitive immunoassay in which CRTH2 expressing CHO cells were incubated in the presence of forskolin and PGD2 along with Eu3+ cryptate-labeled anti-cAMP and d2-labeled cAMP.

Row | IC50 [nM] | SMILES
1 | 409 | Cc1c(-c2ccc(=O)n(CCC(F)(F)F)n2)c2cc(F)ccc2n1CC(=O)O [Example 164, 2-(5-fluoro-2-methyl-3-(6-oxo-1-(3,3,3-trifluoropropyl)-1,6-dihydro-pyridazin-3-yl)-1H-indol-1-yl)acetic acid]
2 | > 1000 | Cc1c(-c2ccc(=O)n(CC(C)(C)C)n2)c2cc(F)ccc2n1CC(=O)O [Example 165, 2-(5-fluoro-2-methyl-3-(1-neopentyl-6-oxo-1,6-dihydropyridazin-3-yl)-1H-indol-1-yl)acetic acid]
3 | 14 | Cc1c(-c2nn(Cc3nc4ccccc4s3)c(=O)c3ccccc23)c2ccccc2n1CC(=O)O [Example 167, 2-(3-(3-(benzo[d]thiazol-2-ylmethyl)-4-oxo-3,4-dihydrophthalazin-1-yl)-2-methyl-1H-indol-1-yl)acetic acid]
4 | 62 | Cc1c(-c2nn(Cc3ccc(S(C)(=O)=O)cc3)c(=O)c3ccccc23)c2ccccc2n1CC(=O)O [Example 168, 2-(2-methyl-3-(3-(4-(methylsulfonyl)benzyl)-4-oxo-3,4-dihydrophthalazin-1-yl)-1H-indol-1-yl)acetic acid]
5 | 14 | Cc1c(-c2nn(Cc3ccc4ccccc4n3)c(=O)c3ccccc23)c2ccccc2n1CC(=O)O [Example 169, 2-(2-methyl-3-(4-oxo-3-(quinolin-2-ylmethyl)-3,4-dihydrophthalazin-1-yl)-1H-indol-1-yl)acetic acid]
6 | 25 | Cc1c(-c2nn(Cc3ccc(OC(F)(F)F)cc3)c(=O)c3ccccc23)c2ccccc2n1CC(=O)O [Example 170, 2-(2-methyl-3-(4-oxo-3-(4-(trifluoromethoxy)benzyl)-3,4-dihydrophthalazin-1-yl)-1H-indol-1-yl)acetic acid]
7 | 296 | Cc1c(-c2nn(Cc3ccc(C(F)(F)F)cc3)c(=O)c3ccccc23)c2ccccc2n1CC(=O)O [Example 171, 2-(2-methyl-3-(4-oxo-3-(4-(trifluoromethyl)benzyl)-3,4-dihydrophthalazin-1-yl)-1H-indol-1-yl)acetic acid]
8 | 40 | Cc1c(-c2nn(Cc3c(F)cccc3F)c(=O)c3ccccc23)c2ccccc2n1CC(=O)O [Example 172, 2-(3-(3-(2,6-difluorobenzyl)-4-oxo-3,4-dihydrophthalazin-1-yl)-2-methyl-1H-indol-1-yl)acetic acid]
9 | 76 | Cc1ccc(Cn2nc(-c3c(C)n(CC(=O)O)c4ccccc34)c3ccccc3c2=O)cc1 [Example 173, 2-(2-methyl-3-(3-(4-methylbenzyl)-4-oxo-3,4-dihydrophthalazin-1-yl)-1H-indol-1-yl)acetic acid]
10 | 980 | Cc1c(-c2nn(C)c(=O)c3ccccc23)c2ccccc2n1CC(=O)O [Example 174, 2-(2-methyl-3-(3-methyl-4-oxo-3,4-dihydrophthalazin-1-yl)-1H-indol-1-yl)-acetic acid]
11 | 175 | CCn1nc(-c2c(C)n(CC(=O)O)c3ccccc23)c2ccccc2c1=O [Example 175, 2-(3-(3-ethyl-4-oxo-3,4-dihydrophthalazin-1-yl)-2-methyl-1H-indol-1-yl)-acetic acid]
12 | 123 | Cc1c(-c2nn(CC3CC3)c(=O)c3ccccc23)c2ccccc2n1CC(=O)O [Example 176, 2-(3-(3-(cyclopropylmethyl)-4-oxo-3,4-dihydrophthalazin-1-yl)-2-methyl-1H-indol-1-yl)acetic acid]
13 | 215 | Cc1c(-c2nn(CC(F)(F)F)c(=O)c3ccccc23)c2ccccc2n1CC(=O)O [Example 177, 2-(2-Methyl-3-(4-oxo-3-(2,2,2-trifluoroethyl)-3,4-dihydrophthalazin-1-yl)-1H-indol-1-yl)-acetic acid]
14 | 215 | Cc1c(-c2nn(C3CC3)c(=O)c3ccccc23)c2ccccc2n1CC(=O)O [Example 178, 2-(3-(3-cyclopropyl-4-oxo-3,4-dihydrophthalazin-1-yl)-2-methyl-1H-indol-1-yl)-acetic acid]
15 | > 1000 | Cc1c(-c2nn(C3CCCC3)c(=O)c3ccccc23)c2ccccc2n1CC(=O)O [Example 179, 2-(3-(3-cyclopentyl-4-oxo-3,4-dihydrophthalazin-1-yl)-2-methyl-1H-indol-1-yl)-acetic acid]
16 | 96 | Cc1c(-c2ccc(=O)n(Cc3ccccc3)n2)c2ccccc2n1CC(=O)O [Example 180, 2-(3-(1-benzyl-6-oxo-1,6-dihydropyridazin-3-yl)-2-methyl-1H-indol-1-yl)-acetic acid]
17 | 920 | Cc1c(-c2ccc(=O)n(C(C)C)n2)c2ccccc2n1CC(=O)O [Example 181, 2-(3-(1-isopropyl-6-oxo-1,6-dihydropyridazin-3-yl)-2-methyl-1H-indol-1-yl)-acetic acid]

Row | IC50 [nM] | SMILES
18 | 1720 | CCn1nc(-c2c(C)n(CC(=O)O)c3ccccc23)ccc1=O [Example 182, 2-(3-(1-ethyl-6-oxo-1,6-dihydropyridazin-3-yl)-2-methyl-1H-indol-1-yl)-acetic acid]
19 | 4990 | Cc1c(-c2ccc(=O)n(C)n2)c2ccccc2n1CC(=O)O [Example 183, 2-(2-methyl-3-(1-methyl-6-oxo-1,6-dihydropyridazin-3-yl)-1H-indol-1-yl)-acetic acid]
20 | 62 | Cc1c(-c2ccc(=O)n(CC3CC3)n2)c2ccccc2n1CC(=O)O [Example 184, 2-(3-(1-(cyclopropylmethyl)-6-oxo-1,6-dihydropyridazin-3-yl)-2-methyl-1H-indol-1-yl)acetic acid]
21 | > 1000 | Cc1c(-c2ccc(=O)n(CC(F)(F)F)n2)c2ccccc2n1CC(=O)O [Example 185, 2-(2-methyl-3-(6-oxo-1-(2,2,2-trifluoroethyl)-1,6-dihydropyridazin-3-yl)-1H-indol-1-yl)acetic acid]
22 | 150 | COC(=O)Cn1c(C)c(-c2ccc(=O)n(Cc3ccc(F)cc3F)n2)c2ccccc21 [Example 186, methyl 2-(3-(1-(2,4-difluorobenzyl)-6-oxo-1,6-dihydropyridazin-3-yl)-2-methyl-1H-indol-1-yl)acetate]
23 | 75 | Cc1c(-c2ccc(=O)n(Cc3cc(F)c(F)cc3F)n2)c2ccccc2n1CC(=O)O [Example 187, 2-(2-methyl-3-(6-oxo-1-(2,4,5-trifluorobenzyl)-1,6-dihydropyridazin-3-yl)-1H-indol-1-yl)acetic acid]
24 | 227 | Cc1c(-c2ccc(=O)n(Cc3cccc(F)c3F)n2)c2ccccc2n1CC(=O)O [Example 188, 2-(3-(1-(2,3-difluorobenzyl)-6-oxo-1,6-dihydropyridazin-3-yl)-2-methyl-1H-indol-1-yl)acetic acid]
25 | 45 | Cc1c(-c2ccc(=O)n(Cc3ccc(F)cc3)n2)c2ccccc2n1CC(=O)O [Example 189, 2-(3-(1-(4-fluorobenzyl)-6-oxo-1,6-dihydropyridazin-3-yl)-2-methyl-1H-indol-1-yl)acetic acid]
26 | 867 | Cc1c(-c2ccc(=O)n(Cc3ccccc3F)n2)c2ccccc2n1CC(=O)O [Example 190, 2-(3-(1-(2-fluorobenzyl)-6-oxo-1,6-dihydropyridazin-3-yl)-2-methyl-1H-indol-1-yl)acetic acid]
27 | 64 | Cc1ccc2c(c1)c(-c1ccc(=O)n(Cc3ccccc3)n1)c(C)n2CC(=O)O [Example 191, 2-(3-(1-benzyl-6-oxo-1,6-dihydropyridazin-3-yl)-2,5-dimethyl-1H-indol-1-yl)acetic acid]
28 | 4 | Cc1ccc2c(c1)c(-c1nn(Cc3ccccc3)c(=O)c3ccccc13)c(C)n2CC(=O)O [Example 192, 2-(3-(3-Benzyl-4-oxo-3,4-dihydrophthalazin-1-yl)-2,5-dimethyl-1H-indol-1-yl)acetic acid]
29 | 8 | Cc1c(Cc2ccc(=O)n(Cc3cc(F)c(F)cc3F)n2)c2cc(F)ccc2n1CC(=O)O [Example 193, 2-(5-fluoro-2-methyl-3-((6-oxo-1-(2,4,5-trifluorobenzyl)-1,6-dihydro-pyridazin-3-yl)methyl)-1H-indol-1-yl)acetic acid]
30 | 98 | Cc1c(Cc2ccc(=O)n(Cc3ccncc3)n2)c2cc(F)ccc2n1CC(=O)O [Example 194, 2-(5-fluoro-2-methyl-3-((6-oxo-1-(pyridin-4-ylmethyl)-1,6-dihydro-pyridazin-3-yl)methyl)-1H-indol-1-yl)acetic acid]
31 | 12 | Cc1c(Cc2ccc(=O)n(Cc3cccnc3)n2)c2cc(F)ccc2n1CC(=O)O [Example 195, 2-(5-fluoro-2-methyl-3-((6-oxo-1-(pyridin-3-ylmethyl)-1,6-dihydropyridazin-3-yl)methyl)-1H-indol-1-yl)acetic acid]
32 | 18 | Cc1c(Cc2ccc(=O)n(Cc3ccccn3)n2)c2cc(F)ccc2n1CC(=O)O [Example 196, 2-(5-fluoro-2-methyl-3-((6-oxo-1-(pyridin-2-ylmethyl)-1,6-dihydropyridazin-3-yl)methyl)-1H-indol-1-yl)acetic acid]
33 | 270 | Cc1c(Cc2ccc(=O)n(CC(C)(C)O)n2)c2cc(F)ccc2n1CC(=O)O [Example 197, (5-fluoro-3-{[1-(2-hydroxy-2-methylpropyl)-6-oxo-1,6-dihydropyridazin-3-yl]-methyl}-2-methyl-1H-indol-1-yl)acetic acid]
34 | 46 | Cc1c(-c2nn(Cc3ccc(C(F)(F)F)cc3)c(=O)c3ccccc23)c2cc(Cl)ccc2n1CC(=O)O [Example 198, 2-(5-Chloro-2-methyl-3-(4-oxo-3-(4-(trifluoromethyl)benzyl)-3,4-dihydrophthalazin-1-yl)-1H-indol-1-yl)acetic acid]
